Source: patent US5049685A, “Nuclear substituted salicylic acids and their salts” (Sanko Kaihatsu Kagaku Kenkyusho, priority 1988, dated 1991)

Experiment: Solubility in water (four-stage evaluation)
Assay type: physicochemical

| solubility | SMILES | Solubility in Water |
| --- | --- | --- |
| > 500 mg/mL | Cc1c(C(C)(C)c2ccccc2)cc(C(C)C)c(O)c1C(=O)O [12-2 Sodium] |  |
| > 500 mg/mL | Cc1c(C(C)(C)C)cc(C(C)(C)CC(C)(C)C)c(O)c1C(=O)O [4-3 Sodium] |  |
| 200 to 500 mg/mL | Cc1cc(C(C)(C)c2ccccc2)cc(C(=O)O)c1O [(2) Sodium, 3-methyl-5-(α, α-dimethylbenzyl)salicylic acid, reference compound] |  |
|  | Cc1c(C(C)(C)C)cc(C(C)(C)CC(C)(C)C)c(O)c1C(=O)O [4-3 Morpholine] | .circleincircle. (solubility =not less than 50%) |
| > 500 mg/mL | Cc1c(C(C)(C)C)cc(C(C)(C)c2ccccc2)c(O)c1C(=O)O [5-3 Sodium] |  |
|  | Cc1c(C(C)(C)c2ccccc2)cc(C(C)(C)C)c(O)c1C(=O)O [2-2 Morpholine] | .circleincircle. (solubility =not less than 50%) |
| > 500 mg/mL | CCC(C)(C)c1cc(C(C)(C)CC)c(O)c(C(=O)O)c1C [3-2 Sodium] |  |
| > 500 mg/mL | Cc1cc(C(C)(C)c2ccccc2)c(C)c(C(=O)O)c1O [11-2 Sodium] |  |
|  | Cc1c(C(C)(C)C)cc(C(C)(C)c2ccccc2)c(O)c1C(=O)O [5-3 Morpholine] | .circleincircle. (solubility =not less than 50%) |
| > 500 mg/mL | C1COCCN1 [1 Morpholine] |  |
| > 500 mg/mL | Cc1c(C(C)(C)C)cc(C(C)(C)C)c(O)c1C(=O)O [1 Sodium] |  |
| > 500 mg/mL | Cc1c(C(C)(C)c2ccccc2)cc(C(C)(C)C)c(O)c1C(=O)O [2-2 Sodium] |  |

Experiment: Solubility in toluene (four-stage evaluation)
Assay type: physicochemical

| SMILES | Solubility in Toluene |
| --- | --- |
| Cc1cc(C(C)(C)c2ccccc2)c(C)c(C(=O)O)c1O [11-2 Free Acid] | .largecircle. (solubility =not less than 20% to less than 50%) |
| Cc1cc(C(C)(C)c2ccccc2)cc(C(=O)O)c1O [(2) Free Acid, 3-methyl-5-(α,α-dimethyllbenzyl)salicylic acid, reference compound] | Δ (solubility =not less than 5% to less than 20%) |
| Cc1c(C(C)(C)c2ccccc2)cc(C(C)C)c(O)c1C(=O)O [12-2 Free Acid] | .circleincircle. (solubility =not less than 50%) |
| Cc1c(C(C)(C)C)cc(C(C)(C)CC(C)(C)C)c(O)c1C(=O)O [4-3 Morpholine] | .largecircle. (solubility =not less than 20% to less than 50%) |
| Cc1c(C(C)(C)C)cc(C(C)(C)C)c(O)c1C(=O)O [1 Free Acid] | .largecircle. (solubility =not less than 20% to less than 50%) |
| Cc1c(C(C)(C)c2ccccc2)cc(C(C)(C)C)c(O)c1C(=O)O [2-2 Morpholine] | .largecircle. (solubility =not less than 20% to less than 50%) |
| Cc1c(C(C)(C)C)cc(C(C)(C)CC(C)(C)C)c(O)c1C(=O)O [4-3 Free Acid] | .circleincircle. (solubility =not less than 50%) |
| CCC(C)(C)c1cc(C(C)(C)CC)c(O)c(C(=O)O)c1C [3-2 Free Acid] | .largecircle. (solubility =not less than 20% to less than 50%) |
| Cc1c(C(C)(C)c2ccccc2)cc(C(C)(C)C)c(O)c1C(=O)O [2-2 Free Acid] | .circleincircle. (solubility =not less than 50%) |
| Cc1c(C(C)(C)C)cc(C(C)(C)c2ccccc2)c(O)c1C(=O)O [5-3 Morpholine] | .largecircle. (solubility =not less than 20% to less than 50%) |
| Cc1c(C(C)(C)C)cc(C(C)(C)c2ccccc2)c(O)c1C(=O)O [5-3 Free Acid] | .circleincircle. (solubility =not less than 50%) |
| C1COCCN1 [1 Morpholine] | .largecircle. (solubility =not less than 20% to less than 50%) |
